Experiment [1] concerns rats mâles de souche OFA. The experiment can be described thus: anti-ulcer activity against a necrotising agent (e.g. absolute ethanol), oral, rat. It is filed as in vivo. The conditions noted are these: v.o., 30 min before necrotising agent, stomachs removed 1 h after, dose reducing lesions by 50 %, determined graphically, read-out: activité anti-ulcère vis à vis d'un agent nécrosant DA 50 Mg/Kg v.o. As for the experimental part: (§1) Des lots de 10 à 30 rats mâles de souche OFA (Iffa Credo), pesant 160-180 g, sont mis à la diète hydrique 24 h avant l'administration orale du produit étudié. Trente minutes plus tard, un agent ulcérigène médicamenteux ou un agent nécrosant (exemple : éthanol absolu) est administré par voie orale à des doses qui entraînent chez les animaux témoins une ulcération gastrique maximale. Les estomacs sont prélevés, selon le test, respectivement 6 et 1 h après le dernier traitement. Les lésions gastriques sont alors évaluées macroscopiquement (cotation et mesure de l'ampleur des ulcères).
(§2) Ils sont exprimés sous forme de dose active 50 déterminée graphiquement. Cette dose exprime la dose nécessaire pour réduire de 50 % les lésions ulcéreuses observées chez les animaux témoins.

For experiment [2], the system named is rats mâles de souche OFA. The experiment can be described thus: anti-ulcer activity against a non-steroidal anti-inflammatory (ulcerogenic drug), oral, rat. It is filed as in vivo. The conditions noted are these: v.o., 30 min before ulcerogenic drug, stomachs removed 6 h after, dose reducing lesions by 50 %, determined graphically, read-out: activité anti-ulcère vis à vis d'un anti-inflammatoire non stéroïdien DA 50 Mg/Kg v.o. The procedure: as §1, §2

For the compound `Cn1c(=S)[nH]c2ccc(-n3ccnc3)cc21` [Exemple 124, (imidazolyl-1)-5 méthyl-3 benzimidazole thione-2], in the experiment on rats mâles de souche OFA [1], the ED50 was determined as 4.5 mg/kg.

As for `CSc1nc2ccc(-n3ccnc3)cc2[nH]1` [Exemple 128, (Imidazolyl-1)-5 (méthylthio)-2 benzimidazole], the ED50 stood at 4.5 mg/kg with rats mâles de souche OFA [1] and 18.3 mg/kg with rats mâles de souche OFA [2].

Take `C=CCSc1nc2ccc(-n3ccnc3)cc2[nH]1` [Exemple 129, (imidazolyl-1)-5 (allylthio)-2 benzimidazole]: the ED50 in the experiment with rats mâles de souche OFA [1] is 0.33 mg/kg.

Turning to `C#CCSc1nc2ccc(-n3ccnc3)cc2[nH]1` [Exemple 130, (Imidazolyl-1)-5 (propargylthio)-2 benzimidazole], the ED50 in the experiment with rats mâles de souche OFA [1] stood at 0.48 mg/kg; in the experiment with rats mâles de souche OFA [2] it was 9.24 mg/kg.

Source of the values: patent EP0385850A2, “Benzimidazole and azabenzimidazole derivatives, process for their preparation, synthesis intermediates, pharmaceutical compositions containing them, useful for the treatment of cardiovascular diseases and duodenal ulcers” (LABORATOIRES UPSA, priority 1989, dated 1990).
